Data as given in patent US20230026360A1, “DETECTION OF MOLECULAR INTERACTIONS” (Orionis Biosciences, Inc., priority 2019, published 2023).
Entries after “also recorded” stand apart in the source; their conditions may differ.

Key:
Type in all cases: cell-based
[1] = target: CRBN-IKZF2 interaction (Homo sapiens, UniProt Q96SW2); assay: MAPPIT forward assay, CRBN receptor fusion + IKZF2 gp130 fusion; parameters: MAPPIT chimeric receptor (EPO receptor extracellular domain + signaling-deficient leptin receptor part); expressed in transfected cells; host or cells: HEK293T; conditions: forward configuration; HEK293T cells; EPO; dose-response
Sequence of CRBN-IKZF2 interaction (Q96SW2 whole entry, the tested form may be a part): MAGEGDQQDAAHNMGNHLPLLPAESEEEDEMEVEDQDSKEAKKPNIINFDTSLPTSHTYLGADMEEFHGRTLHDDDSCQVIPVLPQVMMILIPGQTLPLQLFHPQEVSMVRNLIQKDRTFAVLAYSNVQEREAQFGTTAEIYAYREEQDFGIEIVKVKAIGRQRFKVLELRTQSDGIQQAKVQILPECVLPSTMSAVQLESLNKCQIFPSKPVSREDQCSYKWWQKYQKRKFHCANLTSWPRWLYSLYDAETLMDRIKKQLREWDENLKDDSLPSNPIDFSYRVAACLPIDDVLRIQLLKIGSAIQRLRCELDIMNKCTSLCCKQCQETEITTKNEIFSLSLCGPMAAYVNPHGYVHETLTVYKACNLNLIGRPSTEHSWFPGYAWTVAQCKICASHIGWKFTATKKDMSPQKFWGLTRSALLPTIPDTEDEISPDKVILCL
Text: (§1) The traditional MAPPIT assay has been used to monitor protein-protein interactions. A bait protein (protein A) is expressed as a fusion protein in which it is genetically fused to an engineered intracellular receptor domain of the leptin receptor, which is itself fused to the extracellular domain of the erythropoietin (Epo) receptor. Binding of Epo ligand to the Epo receptor component results in activation of receptor-associated intracellular JAK2. However, activated JAK2 cannot activate the leptin receptor to trigger STAT3 binding and its phosphorylation because its tyrosine residues, normally phosphorylated by activated JAK2, have been mutated. […] Activation of STAT3 can be monitored by introduction of a STAT3-responsive reporter gene, including a luciferase-encoding gene or a gene encoding a fluorescent marker such as GFP or some other type of Fluorescent Protein (EGFP etc.). […]
(§2) Full size proteins were fused for each of the target/prey proteins tested, except in the case of IKZF1 where isoform 7 was used. […] Luciferase activity was measured 24 hours after test compound treatment using the Luciferase Assay System kit (PROMEGA, Madison, Wis.) with an Ensight plate reader (PERKIN ELMER LIFE SCIENCES, Waltham, Mass.). […]

[2] = target: T1, CRBN-CSNK1A1 interaction (Homo sapiens, UniProt Q96SW2); assay: MAPPIT inverse assay with alternative CSNK1A1 receptor fusion (leptin receptor extracellular domain, pCLG-CSNK1A1); conditions: inverse configuration, activated with leptin, 0, 0.1, 1, 10 μM, HEK293T
T1 construct: expressed in transfected cells; host or cells: HEK293T
T1 sequence (Q96SW2 whole entry, the tested form may be a part): as above
T1 sequence (P48729 whole entry partner, the tested form may be a part): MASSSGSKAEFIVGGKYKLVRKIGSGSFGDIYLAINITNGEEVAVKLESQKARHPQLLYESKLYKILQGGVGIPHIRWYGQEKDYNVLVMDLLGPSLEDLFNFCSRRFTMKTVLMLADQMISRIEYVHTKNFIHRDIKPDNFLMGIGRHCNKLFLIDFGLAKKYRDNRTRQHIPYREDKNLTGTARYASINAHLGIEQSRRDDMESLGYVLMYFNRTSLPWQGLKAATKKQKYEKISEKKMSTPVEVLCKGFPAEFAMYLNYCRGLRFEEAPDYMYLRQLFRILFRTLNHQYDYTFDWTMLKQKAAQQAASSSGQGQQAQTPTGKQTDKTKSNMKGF
Method: Cells were treated with leptin without or with the indicated dose of test compound at 24 hours after transfection. Luciferase activity was measured 24 hours after test compound treatment using the Luciferase Assay System kit (PROMEGA, Madison, Wis.) with an Ensight plate reader (PERKIN ELMER LIFE SCIENCES, Waltham, Mass.). […] Error bars represent standard deviations.

[3] = target: T2, CRBN-ZFP91 interaction (Homo sapiens, UniProt Q96SW2); assay: MAPPIT inverse assay, CRBN gp130 fusion + ZFP91 receptor fusion; parameters: expressed in transfected cells; host or cells: HEK293T; conditions: inverse configuration; HEK293T cells; EPO; dose-response
Text: as §1, §2
Target sequence in this assay (Q96SW2 whole entry, the tested form may be a part): as the sequence (Q96SW2 whole entry, the tested form may be a part) above
Target sequence in this assay (Q96JP5 whole entry partner, the tested form may be a part): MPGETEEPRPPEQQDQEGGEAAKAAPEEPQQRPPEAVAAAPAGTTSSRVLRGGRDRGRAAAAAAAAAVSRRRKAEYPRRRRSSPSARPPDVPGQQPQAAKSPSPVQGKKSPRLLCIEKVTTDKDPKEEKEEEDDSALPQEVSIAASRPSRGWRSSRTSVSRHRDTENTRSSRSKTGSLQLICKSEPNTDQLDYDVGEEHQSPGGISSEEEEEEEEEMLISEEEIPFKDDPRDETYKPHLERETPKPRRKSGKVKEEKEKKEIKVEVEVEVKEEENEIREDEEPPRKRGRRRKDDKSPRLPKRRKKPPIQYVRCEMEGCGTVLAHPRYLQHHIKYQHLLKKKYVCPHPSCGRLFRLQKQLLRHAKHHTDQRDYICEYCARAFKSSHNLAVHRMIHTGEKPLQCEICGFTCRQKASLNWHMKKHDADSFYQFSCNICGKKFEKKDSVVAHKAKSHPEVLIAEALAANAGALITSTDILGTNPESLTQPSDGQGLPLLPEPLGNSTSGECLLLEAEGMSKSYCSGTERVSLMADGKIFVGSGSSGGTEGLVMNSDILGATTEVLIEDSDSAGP

[4] = target: T3, CRBN-SALL4 interaction (Homo sapiens, UniProt Q96SW2); assay: MAPPIT inverse assay, CRBN gp130 fusion + SALL4 receptor fusion; parameters: expressed in transfected cells; host or cells: HEK293T; conditions: inverse configuration; HEK293T cells; EPO; dose-response
Text: as §1, §2
Target sequence in this assay (Q96SW2 whole entry, the tested form may be a part): as the sequence (Q96SW2 whole entry, the tested form may be a part) above
Target sequence in this assay (Q9UJQ4 whole entry partner, the tested form may be a part): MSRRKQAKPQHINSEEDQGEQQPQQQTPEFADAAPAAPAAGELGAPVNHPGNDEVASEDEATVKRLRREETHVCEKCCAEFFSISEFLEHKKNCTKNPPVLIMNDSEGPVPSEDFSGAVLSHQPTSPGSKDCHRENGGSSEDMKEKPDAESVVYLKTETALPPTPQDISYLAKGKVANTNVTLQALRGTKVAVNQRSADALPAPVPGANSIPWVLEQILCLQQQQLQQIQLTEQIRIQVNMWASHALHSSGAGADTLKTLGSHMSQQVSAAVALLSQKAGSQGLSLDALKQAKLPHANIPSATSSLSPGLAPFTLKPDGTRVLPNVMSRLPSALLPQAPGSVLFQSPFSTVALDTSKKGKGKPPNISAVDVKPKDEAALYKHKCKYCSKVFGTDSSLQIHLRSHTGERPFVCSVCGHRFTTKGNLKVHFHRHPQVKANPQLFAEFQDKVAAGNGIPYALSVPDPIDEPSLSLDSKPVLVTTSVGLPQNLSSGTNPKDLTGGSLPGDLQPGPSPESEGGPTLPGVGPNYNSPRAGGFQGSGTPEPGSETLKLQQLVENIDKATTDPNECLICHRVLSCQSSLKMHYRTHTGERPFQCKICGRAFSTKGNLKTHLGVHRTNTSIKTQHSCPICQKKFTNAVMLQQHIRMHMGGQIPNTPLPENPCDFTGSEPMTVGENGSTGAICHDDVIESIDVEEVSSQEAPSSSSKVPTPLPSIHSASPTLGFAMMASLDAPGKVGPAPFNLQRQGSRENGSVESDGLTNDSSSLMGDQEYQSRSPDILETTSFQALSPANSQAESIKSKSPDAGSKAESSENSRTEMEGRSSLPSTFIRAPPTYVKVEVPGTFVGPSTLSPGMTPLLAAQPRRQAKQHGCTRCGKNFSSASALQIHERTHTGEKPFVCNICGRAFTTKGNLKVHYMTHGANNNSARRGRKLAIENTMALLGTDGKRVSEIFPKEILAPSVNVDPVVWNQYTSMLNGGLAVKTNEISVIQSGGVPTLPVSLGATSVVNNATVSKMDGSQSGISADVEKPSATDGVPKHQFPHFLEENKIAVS

[5] = target: T4, CRBN-CSNK1A (CK1a) interaction (Homo sapiens, UniProt Q96SW2); assay: MAPPIT forward assay, CRBN receptor fusion + CSNK1A1 gp130 fusion; parameters: MAPPIT chimeric receptor (EPO receptor extracellular domain + signaling-deficient leptin receptor part); expressed in transfected cells; host or cells: HEK293T; conditions: forward configuration; HEK293T cells; EPO; dose-response
Text: as §1, §2
Target sequence in this assay (Q96SW2 whole entry, the tested form may be a part): as the sequence (Q96SW2 whole entry, the tested form may be a part) above

[6] = system: CRBN and human ORF(eome) cDNA library targets; assay: Inverse MAPPIT cell microarray ORF cDNA library screen with CRBN bait; conditions: HEK293T
Method: In order to identify ligand-induced CRBN substrates, or neosubstrates, a MAPPIT cell microarray screen was performed using the procedure described in Lievens, et al. “Proteome-scale binary interactomics in human cells.” Molecular & Cellular Proteomics 15.12 (2016): 3624-3639. In brief, HEK293T cells were transfected with a CRBN bait expression plasmid encoding a gp130-CRBN fusion construct. These transfected cells were then added to microarray screening plates containing a MAPPIT chimeric membrane receptor fusion expression plasmid collection covering over 15,000 ORFs. Each spot in the microarray contained a different chimeric receptor-ORF fusion expression plasmid, as well as a STAT3-responsive fluorescence protein-encoding reporter plasmid. Gp130-CRBN bait transfected cells landing and attaching on these spots therefore become transfected as well with the receptor-ORF prey plasmid and the reporter plasmid, resulting in a different CRBN-ORF combination being tested in the cells on every different microarray spot. Twenty-four hours after transfection cells were differentially stimulated with erythropoietin with and without the CRBN ligand CC-220 (1 μM final concentration), and reporter signal (GFP-like fluorescence reporter) was read out 48 hours later.

[7] = target: T2, CRBN-ZFP91 interaction; assay: MAPPIT forward assay, CRBN receptor fusion + ZFP91 gp130 fusion; parameters: MAPPIT chimeric receptor (EPO receptor extracellular domain + signaling-deficient leptin receptor part); expressed in transfected cells; host or cells: HEK293T; conditions: forward configuration; HEK293T cells; EPO; dose-response
Text: as §1, §2
Target sequence in this assay (Q96SW2 whole entry, the tested form may be a part): as above

[8] = target: T4, CRBN-CSNK1A (CK1a) interaction; assay: MAPPIT inverse assay, CRBN gp130 fusion + CSNK1A1 receptor fusion; parameters: expressed in transfected cells; host or cells: HEK293T; conditions: inverse configuration; HEK293T cells; EPO; dose-response
Text: as §1, §2
Target sequence in this assay (Q96SW2 whole entry, the tested form may be a part): as above
Target sequence in this assay (P48729 whole entry partner, the tested form may be a part): as the sequence (P48729 whole entry partner, the tested form may be a part) above

[9] = target: T3, CRBN-SALL4 interaction; assay: MAPPIT forward assay, CRBN receptor fusion + SALL4 gp130 fusion; parameters: MAPPIT chimeric receptor (EPO receptor extracellular domain + signaling-deficient leptin receptor part); expressed in transfected cells; host or cells: HEK293T; conditions: forward configuration; HEK293T cells; EPO; dose-response
Text: as §1, §2
Target sequence in this assay (Q96SW2 whole entry, the tested form may be a part): as the sequence (Q96SW2 whole entry, the tested form may be a part) above

What does the source list for O=C1CC[C@H](N2Cc3c(OCc4ccc(CN5CCOCC5)cc4)cccc3C2=O)C(=O)N1 [CC-220]?
compound-induced binding of IKZF2 to CRBN (luciferase reporter signal) [1]: only in the inverse assay setup an interaction signal response could be detected; compound-induced CRBN-CSNK1A1 interaction (CSNK1A1 neosubstrate recruitment) [2]: CSNK1A1 neosubstrate recruitment can be detected; compound-induced binding of ZFP91 to CRBN (luciferase reporter signal) [3]: an interaction signal response could be detected; compound-induced binding of SALL4 to CRBN (luciferase reporter signal) [4]: an interaction signal response could be detected; compound-induced binding of CSNK1A (CK1a) to CRBN (luciferase reporter signal) [5]: only in the inverse assay setup an interaction signal response could be detected; induction of fluorescence reporter signal in ORF cDNA cell microarray screen ([6]; CC-220 1 μM final concentration, over 15,000 ORFs, erythropoietin): a significant induction of signal is observed for a number of ORF cDNAs; dose-response confirmation of binding of three ORF hits to CRBN ([6]; inverse MAPPIT luciferase assay, EPO): dose-dependent binding to CRBN; compound-induced binding of ZFP91 to CRBN (luciferase reporter signal) [7]: only in the inverse assay setup an interaction signal response could be detected; compound-induced binding of CSNK1A (CK1a) to CRBN (luciferase reporter signal) [8]: an interaction signal response could be detected; also recorded: specific signal in the inverse; compound-induced binding of SALL4 to CRBN (luciferase reporter signal) [9]: only in the inverse assay setup an interaction signal response could be detected
